Results published in publication PMC5520691, “An enhanced bioluminescence-based Annexin V probe for apoptosis detection in vitro and in vivo” (Cell Death & Disease, 2017).

Biological target: T1, ArFP (Annexin V-Renilla luciferase RLuc8 fusion protein) (Homo sapiens, UniProt P08758)
T1 construct: gene ANXA5; Annexin V fused N-terminal to the RLuc8 reporter (Renilla reniformis luciferase mutant) via a short linker (GGSGGS by the primers); N-terminal 6xHis tag, pET-30 Xa/LIC, E. coli T7 Express, Ni-NTA; primers cover the Annexin V start (ATGGCACAGGTTCTC, MAQVL) and end (CGEDD)
T1 sequence (P08758 1-320): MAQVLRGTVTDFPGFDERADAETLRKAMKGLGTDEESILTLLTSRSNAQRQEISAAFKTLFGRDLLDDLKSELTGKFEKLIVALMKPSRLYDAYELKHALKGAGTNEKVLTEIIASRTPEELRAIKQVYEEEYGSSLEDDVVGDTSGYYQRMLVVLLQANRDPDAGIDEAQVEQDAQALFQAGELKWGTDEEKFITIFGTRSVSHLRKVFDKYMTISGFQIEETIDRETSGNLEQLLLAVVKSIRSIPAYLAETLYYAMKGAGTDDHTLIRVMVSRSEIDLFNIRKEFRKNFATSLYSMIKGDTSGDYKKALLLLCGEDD
Assay: isothermal titration calorimetry, vesicles titrated into protein, independent binding model
Conditions: read-out: Binding affinity for PS (KD)

Kd: 20.7 µM
SMILES: CCCCCCCC/C=C\CCCCCCCC(=O)O[C@H](COC(=O)CCCCCCCCCCCCCCC)COP(=O)(O)OC[C@H](N)C(=O)O [POPS, 1-palmitoyl-2-oleoyl-sn-glycero-3-[phospho-L-serine]]
